Some results are limits rather than exact numbers.

The subject of data set [1] is C. violaceum 026 sensor strain with AHL producer E. cloacae 31298. Kind of data set: Quorum sensing inhibition (agar diffusion, violacein production). The class given is cell-based, Chromobacterium violaceum. To be noted: disc with 10 μL of 1 mM stock; reduction of violacein zone. The method, then: The following bacterial strains were applied in the QS tests: C. violaceum 026 as sensor strain and E. cloacae 31298 isolated from clinical wound (used as N-acyl-homoserine lactone (AHL) producer); this strain induced pigment production by C. violaceum and is a model strain to study QS interactions.
LB* was applied for these experiments. The sensor strain C. violaceum 026 and the AHL producer strains E. cloacae 31298 were inoculated as parallel lines and incubated at room temperature for 24–48 h. The inhibition of bacterial communication was determined by the agar diffusion method. Filter paper discs (7.0 mm in diameter) were impregnated with 10 μL of stock solutions (1 mM) of the compounds in DMSO. The discs were placed between the parallel lines of the sensor and the AHL producer strains. The plates were kept at room temperature for another 24–48 h, and the interactions between the strains and compounds were determined as the reduction in the size of the zone of purple pigment (violacein) production in millimeters. PMZ was applied as a positive control.

Data set [2] relates to MRC-5 human embryonal lung fibroblast cell line. Briefly: Cytotoxicity assay (MTT). The class given is cell-based. The gist of the method: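 MRC-5 fibroblasts (10^4/well, EMEM with 10% FBS) pre-seeded 4 h, then exposed to two-fold serial compound dilutions for 24 h at 37 °C. MTT added for 4 h, formazan dissolved in SDS/HCl overnight; OD read at 540 nm (ref. 630 nm). IC50 = dose reducing cell growth by 50%.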

In the next data set the test system is S. aureus ATCC 25923. Kind of data set: Anti-biofilm effect (crystal violet). It is filed as cell-based, Staphylococcus aureus. To be noted: compound at ¼ MIC, 48 h, 30 °C, vs untreated biofilm mass. As to the method:
The effect of ligands and their metal complexes on biofilm formation was evaluated on the reference S. aureus ATCC 25923 strain. The biofilm inhibition (%) was calculated based on the mean of absorbance units.
The biofilm production of the S. aureus ATCC 25923 strain was studied in 96-well plates using TSB broth in the presence of compounds. […] The final volume was 200 μL in each well. The samples were incubated at 30 °C for 48 h with gentle agitation (100 rpm). Then, the medium was removed, and the plate was washed with tap water to discard unattached cells. 200 μL CV (0.1% [v/v]) was added to the wells and incubated for 15 min at room temperature. CV was removed from the wells and the plate was washed again with tap water. 200 μL 70% ethanol was transferred to each well and the biofilm formation was determined by measuring the OD at 600 nm using Multiscan EX ELISA reader (Thermo Labsystems, Cheshire, CT, USA). The anti-biofilm effect of compounds was determined as the percentage (%) of decrease in biofilm formation. The assay was repeated a minimum of three times. The results were calculated using a t-test and p-values of <0.001 were considered significant.

What is called IC50 is the point on the concentration scale where inhibition reaches its midpoint. Take `[O-]C(=Cc1nc2ccccc2o1)C(F)(F)Cl.[O-]C(=Cc1nc2ccccc2o1)C(F)(F)Cl.[Zn+2]` [Compound 5]: the “Inhibition zone (quorum sensing)” value in data set [1] turned out to be 16 mm. The IC50 in data set [2] (24 h) came out at 24.6 µM.
With `O=C(Cc1nc2ccccc2o1)C(F)F` [Compound 3], the Biofilm inhibition in the data set with S. aureus ATCC 25923 came to 16.4%. The “Inhibition zone (quorum sensing)” value in data set [1] was 56 mm. The “Cytotoxic effect (class in words)” value in data set [2] (24 h) is listed as “moderate (IC50: 31–60)”. Also, the IC50 in data set [2] (Homo sapiens, MRC5, 24 h) is 44.5 µM.
With `[Fe+3].[O-]C(=Cc1nc2ccccc2o1)C(F)(F)F.[O-]C(=Cc1nc2ccccc2o1)C(F)(F)F.[O-]C(=Cc1nc2ccccc2o1)C(F)(F)F` [Compound 12], the Biofilm inhibition with S. aureus ATCC 25923 came to 75%. In data set [2] (24 h), the “Cytotoxic effect (class in words)” value was “no (IC50 > 100 µM)” and the IC50 is over 100 µM.

(Values after article PMC7600679, “Benzoxazole-Based Metal Complexes to Reverse Multidrug Resistance in Bacteria” (Antibiotics, 2020).)
